Experimental data published in patent US8759373B2, “Cyanoisoquinoline compounds and methods of use thereof” (Fibrogen, Inc., priority 2006, dated 2014).

System: mouse erythropoietin
Assay: Plasma erythropoietin levels in mice after IV dosing (mouse erythropoietin QUANTIKINE ELISA)
Format: in vivo, Male Swiss Webster mice
Conditions: blood 4 hours post IV dosing, same conditions and concentration
Description: Compounds were tested for activity using the following assay. Compounds were dissolved in aqueous solution containing twice as much sodium hydroxide, mole-for-mole, as compound and dextrose as tonicity agent. Male Swiss Webster mice were dosed by tail vein injection with the compound, and blood samples were collected into EDTA and heparin 4 hours post IV dosing. The samples were analyzed using a mouse erythropoietin QUANTIKINE ELISA kit (R&D Systems Inc., Minneapolis Minn.) according to the manufacturer's instructions. […] Table 1 below illustrates the fold difference (i.e., the level of improvement) between erythropoietin levels achieved by compounds of the invention compared to erythropoietin levels achieved by compounds having the same structure except the cyano group at the C-1 position is replaced as shown below, tested under the same conditions and at the same concentration.

[1] = comparator: same structure with —CH3 in place of cyano at C-1, tail vein injection
[2] = comparator: same structure with —H in place of cyano at C-1, tail vein injection
[3] = comparator: same structure with —Cl in place of cyano at C-1, tail vein injection

N#Cc1nc(C(=O)NCC(=O)O)c(O)c2ccc(Oc3ccccc3)cc12 [Example 3, [(1-Cyano-4-hydroxy-7-phenoxy-isoquinoline-3-carbonyl)-amino]-acetic acid]
Fold Difference (erythropoietin levels vs. comparative compound) [1]: 2.5×

N#Cc1nc(C(=O)NCC(=O)O)c(O)c2ccc(Cc3ccccc3)cc12 [Example 22, [(7-Benzyl-1-cyano-4-hydroxy-isoquinoline-3-carbonyl)-amino]-acetic acid]
Fold Difference (erythropoietin levels vs. comparative compound) [2]: 26×

CN(C)c1nc2cc(Oc3ccc4c(C#N)nc(C(=O)NCC(=O)O)c(O)c4c3)ccc2o1 [Example 40, {[1-Cyano-6-(2-dimethylamino-benzooxazol-5-yloxy)-4-hydroxy-isoquinoline-3-carbonyl]-amino}-acetic acid]
Fold Difference (erythropoietin levels vs. comparative compound) [2]: 81×

N#Cc1nc(C(=O)NCC(=O)O)c(O)c2ccccc12 [Example 1, [(1-Cyano-4-hydroxy-isoquinoline-3-carbonyl)-amino]-acetic acid]
Fold Difference (erythropoietin levels vs. comparative compound) [3]: 4.7×

Cc1nc2ccc(Oc3ccc4c(C#N)nc(C(=O)NCC(=O)O)c(O)c4c3)cc2s1 [Example 39, {[1-Cyano-4-hydroxy-6-(2-methyl-benzothiazol-6-yloxy)-isoquinoline-3-carbonyl]-amino}-acetic acid]
Fold Difference (erythropoietin levels vs. comparative compound) [1]: 178×

N#Cc1nc(C(=O)NCC(=O)O)c(O)c2ccc(Oc3ccc(F)cc3)cc12 [Example 6, {[1-Cyano-7-(4-fluoro-phenoxy)-4-hydroxy-isoquinoline-3-carbonyl]-amino}-acetic acid]
Fold Difference (erythropoietin levels vs. comparative compound) [3]: 31×

N#Cc1nc(C(=O)NCC(=O)O)c(O)c2c(Oc3ccc(F)cc3)cccc12 [Example 23, {[1-Cyano-5-(4-fluoro-phenoxy)-4-hydroxy-isoquinoline-3-carbonyl]-amino}-acetic acid]
Fold Difference (erythropoietin levels vs. comparative compound) [2]: 277×

N#Cc1nc(C(=O)NCC(=O)O)c(O)c2cc(Oc3ccccc3)ccc12 [Example 12, [(1-Cyano-4-hydroxy-6-phenoxy-isoquinoline-3-carbonyl)-amino]-acetic acid]
Fold Difference (erythropoietin levels vs. comparative compound) (comparator: same structure with —Br in place of cyano at C-1, tail vein injection): 362×
Fold Difference (erythropoietin levels vs. comparative compound) [3]: 449×

N#Cc1nc(C(=O)NCC(=O)O)c(O)c2cccc(Oc3ccccc3)c12 [Example 9, [(1-Cyano-4-hydroxy-8-phenoxy-isoquinoline-3-carbonyl)-amino]-acetic acid]
Fold Difference (erythropoietin levels vs. comparative compound) [1]: 2.4×

COc1cccc(Oc2cccc3c(O)c(C(=O)NCC(=O)O)nc(C#N)c23)c1 [Example 20, {[1-Cyano-4-hydroxy-8-(3-methoxy-phenoxy)-isoquinoline-3-carbonyl]-amino}-acetic acid]
Fold Difference (erythropoietin levels vs. comparative compound) [2]: 23×
